Values after ≈ are worked out from the molar mass of the structure shown.
Experiments:
Type in all cases: cell-based
E. coli NIHJ = assay: Antibiotic sensitivity, paper disc-agar diffusion method; design: key: S (sensitive); R (resistant); I (intermediate); settings: nutrient agar, 2 day's incubation at 28° C., Difco discs, amount/disc per antibiotic
S. aureus 209P = assay: as above; design: key: S (sensitive); R (resistant); I (intermediate); settings: nutrient agar, 2 day's incubation at 28° C., Difco discs, amount/disc per antibiotic
[1] = test system: Staphylococcus aureus #193; assay: MIC, serial two-fold dilution method (aerobic); settings: Staphylococcus aureus #193; Mueller-Hinton agar; inoculum 10^4; read-out: minimum inhibitory concentration (MIC)
[2] = test system: Staphylococcus aureus BX-1633; assay: MIC, serial two-fold dilution method (aerobic); settings: BX1633; Staphylococcus aureus BX-1633; Mueller-Hinton agar; inoculum 10^4; read-out: minimum inhibitory concentration (MIC)
[3] = test system: Staphylococcus aureus A9601; assay: MIC, serial two-fold dilution method (aerobic); settings: Staphylococcus aureus A9601; Mueller-Hinton agar; inoculum 10^4; read-out: minimum inhibitory concentration (MIC)
[4] = test system: Staphylococcus aureus A9748; assay: MIC, serial two-fold dilution method (aerobic); settings: Staphylococcus aureus A9748; Mueller-Hinton agar; inoculum 10^4; read-out: minimum inhibitory concentration (MIC)
[5] = test system: Staphylococcus aureus A20239; assay: MIC, serial two-fold dilution method (aerobic); settings: Staphylococcus aureus A20239; Mueller-Hinton agar; inoculum 10^4; read-out: minimum inhibitory concentration (MIC)
[6] = test system: Staphylococcus aureus A20394; assay: MIC, serial two-fold dilution method (aerobic); settings: Staphylococcus aureus A20394; Mueller-Hinton agar; inoculum 10^4; read-out: minimum inhibitory concentration (MIC)
[7] = test system: Staphylococcus aureus A20701; assay: MIC, serial two-fold dilution method (aerobic); settings: Staphylococcus aureus A20701; Mueller-Hinton agar; inoculum 10^4; read-out: minimum inhibitory concentration (MIC)
[8] = test system: Streptococcus pyogenes S-23; assay: MIC, serial two-fold dilution method (aerobic); settings: S23; Streptococcus pyogenes S-23; GC medium; inoculum 10^6 CFU/ml; read-out: minimum inhibitory concentration (MIC)
Sarcina lutea PCI-1001 = assay: MIC, serial two-fold dilution method (aerobic); settings: Micrococcus luteus, PCI1001; Sarcina lutea PCI-1001; Mueller-Hinton agar; inoculum 10^4; read-out: minimum inhibitory concentration (MIC)
Micrococcus flavus D-12 = assay: MIC, serial two-fold dilution method (aerobic); settings: D12; Micrococcus flavus D-12; Mueller-Hinton agar; inoculum 10^4; read-out: minimum inhibitory concentration (MIC)
[9] = test system: Bacillus subtilis ATCC 6633; assay: MIC, serial two-fold dilution method (aerobic); settings: ATCC6633; Bacillus subtilis ATCC 6633; Mueller-Hinton agar; inoculum 10^4; read-out: minimum inhibitory concentration (MIC)
[10] = test system: Klebsiella pneumoniae D-11; assay: MIC, serial two-fold dilution method (aerobic); settings: D11; Klebsiella pneumoniae D-11; Mueller-Hinton agar; inoculum 10^4; read-out: minimum inhibitory concentration (MIC)
Proteus mirabilis A9554 = assay: MIC, serial two-fold dilution method (aerobic); settings: Proteus mirabilis A9554; Mueller-Hinton agar; inoculum 10^4; read-out: minimum inhibitory concentration (MIC)
Proteus vulgaris A9436 = assay: MIC, serial two-fold dilution method (aerobic); settings: Proteus vulgaris A9436; Mueller-Hinton agar; inoculum 10^4; read-out: minimum inhibitory concentration (MIC)
[11] = test system: Pseudomonas aeruginosa D-113; assay: MIC, serial two-fold dilution method (aerobic); settings: D113; Pseudomonas aeruginosa D-113; Mueller-Hinton agar; inoculum 10^4; read-out: minimum inhibitory concentration (MIC)
[12] = test system: Haemophilus influenzae A22481; assay: MIC, serial two-fold dilution method (aerobic); settings: Haemophilus influenzae A22481; GC medium; inoculum 10^6 CFU/ml; read-out: minimum inhibitory concentration (MIC)
[13] = test system: Clostridium acidiurici A9560; assay: MIC, serial two-fold dilution method (anaerobic); settings: Gottschalkia acidurici; Clostridium acidiurici A9560; GAM agar medium; inoculum 10^7-10^8; read-out: minimum inhibitory concentration (MIC)
[14] = test system: Clostridium cylindrosporum A9562; assay: MIC, serial two-fold dilution method (anaerobic); settings: Clostridium cylindrosporum A9562; GAM agar medium; inoculum 10^7-10^8; read-out: minimum inhibitory concentration (MIC)
[15] = test system: Clostridium perfringens A9635; assay: microbe, parasite or virus in culture; settings: Clostridium perfringens, A9635, read-out: minimum inhibitory concentration (MIC)
[16] = test system: Clostridium perfringens A22787; assay: microbe, parasite or virus in culture; settings: Clostridium perfringens, A22787, read-out: minimum inhibitory concentration (MIC)
[17] = test system: Propionibacterium acnes A21933; assay: MIC, serial two-fold dilution method (anaerobic); settings: Cutibacterium acnes; Propionibacterium acnes A21933; GAM agar medium; inoculum 10^7-10^8; read-out: minimum inhibitory concentration (MIC)
[18] = test system: Peptococcus magnas A21676; assay: MIC, serial two-fold dilution method (anaerobic); settings: Peptococcus magnas A21676; GAM agar medium; inoculum 10^7-10^8; read-out: minimum inhibitory concentration (MIC)
[19] = test system: Bacteroides fragilis A20928-1; assay: MIC, serial two-fold dilution method (anaerobic); settings: A209281; Bacteroides fragilis A20928-1; GAM agar medium; inoculum 10^7-10^8; read-out: minimum inhibitory concentration (MIC)
[20] = test system: Bacteroides fragilis A20929; assay: MIC, serial two-fold dilution method (anaerobic); settings: Bacteroides fragilis A20929; GAM agar medium; inoculum 10^7-10^8; read-out: minimum inhibitory concentration (MIC)
[21] = test system: Bacteroides fragilis A22533; assay: MIC, serial two-fold dilution method (anaerobic); settings: Bacteroides fragilis A22533; GAM agar medium; inoculum 10^7-10^8; read-out: minimum inhibitory concentration (MIC)
[22] = test system: Bacteroides fragilis A22695; assay: MIC, serial two-fold dilution method (anaerobic); settings: Bacteroides fragilis A22695; GAM agar medium; inoculum 10^7-10^8; read-out: minimum inhibitory concentration (MIC)
[23] = test system: Bacteroides ovatus A22400; assay: MIC, serial two-fold dilution method (anaerobic); settings: Bacteroides ovatus A22400; GAM agar medium; inoculum 10^7-10^8; read-out: minimum inhibitory concentration (MIC)

CC1(C)S[C@@H]2[C@H](NC(=O)[C@H](N)c3ccccc3)C(=O)N2[C@H]1C(=O)O [Ampicillin]
Sensitivity E. coli NIHJ (E. coli NIHJ): S | Sensitivity S. aureus 209P (S. aureus 209P): S | MIC [1]: 1.6 µg/mL (≈ 4.58 µM) | MIC [2]: 3.1 µg/mL (≈ 8.87 µM) | MIC [3]: 0.4 µg/mL (≈ 1.14 µM) | MIC [4]: 25 µg/mL (≈ 71.5 µM) | MIC [5]: 1.6 µg/mL (≈ 4.58 µM) | MIC [6]: 3.1 µg/mL (≈ 8.87 µM) | MIC [7]: 25 µg/mL (≈ 71.5 µM) | MIC [8]: 0.013 µg/mL (≈ 0.0372 µM) | MIC (Sarcina lutea PCI-1001): < 0.05 µg/mL | MIC (Micrococcus flavus D-12): 0.1 µg/mL (≈ 0.286 µM) | MIC [9]: 0.013 µg/mL (≈ 0.0372 µM) | MIC [10]: 0.8 µg/mL (≈ 2.29 µM) | MIC (Proteus mirabilis A9554): 0.8 µg/mL (≈ 2.29 µM) | MIC (Proteus vulgaris A9436): 0.4 µg/mL (≈ 1.14 µM) | MIC [11]: > 100 µg/mL | MIC [12]: 50 µg/mL (≈ 143 µM) | MIC [13]: 0.8 µg/mL (≈ 2.29 µM) | MIC [14]: 0.8 µg/mL (≈ 2.29 µM) | MIC [15]: 0.2 µg/mL (≈ 0.572 µM) | MIC [16]: 0.1 µg/mL (≈ 0.286 µM) | MIC [17]: 0.2 µg/mL (≈ 0.572 µM) | MIC [18]: 0.1 µg/mL (≈ 0.286 µM) | MIC [19]: 0.2 µg/mL (≈ 0.572 µM) | MIC [20]: 0.8 µg/mL (≈ 2.29 µM) | MIC [21]: > 100 µg/mL | MIC [22]: > 100 µg/mL | MIC [23]: 25 µg/mL (≈ 71.5 µM)

From patent US4409210A, “Antibiotic compound” (priority 1982, dated 1983)
